Measured values from article PMC5833777, “Lup-20(29)-en-3β,28-di-yl-nitrooxy acetate affects MCF-7 proliferation through the crosstalk between apoptosis and autophagy in mitochondria” (Cell Death & Disease, 2018).

What was measured:
MCF-7 cells = experiment: Western blots of MCF-7 cell extracts; assay type: cell-based
Experimental: MCF-7 cells treated with NBT and/or CQ for 24 h were harvested, washed twice with cold PBS, and then fractionated into cytosolic and mitochondrial fractions by using a Qproteome Mitochondria Isolation Kit (Qiagen, Germany) following the manufacturer’s protocol.
MCF-7 cells treated with NBT and/or CQ for 24 h were lysed in cell lysis buffer containing 1% PMFS for 30 min on ice and centrifuged at 12,000 r.p.m. for 5 min at 4 °C. Then, the protein was quantified by using a BCA Protein Assay Kit (BestBio, Shanghai, China).
Total cell extracts (50 μg) were separated by using SDS-PAGE at 120 V for 1.5 h at room temperature and then eletrotransferred onto PVDF membranes at 300 mA for 1 h at 4 °C. The membranes were washed three times with TBST each for 10 min, blocked with 5% nonfat dry milk in TBST for 2 h at room temperature, rinsed with TBST, incubated with primary antibodies overnight at 4 °C, washed three times with TBST, incubated with HRP-linked anti-IgG for 1 h at room temperature, and then washed three times as before. At the same time, β-actin, GAPDH, and tubulin acted as the control. Afterward, the chemiluminescent bands were analyzed using Image Lab™ Software on ChemiDoc XRS + (Bio-Rad, USA).

MCF-7 xenograft = experiment: In vivo antitumor efficacy on MCF-7 tumor-bearing nude mice (tumor volume, H&E, TUNEL); parameters: species or system female BALB/c nude mice; settings: for tumor growth compared with the control: i.p. daily for 11 days, NBT 100 mg/kg, BT 100 mg/kg, 5-FU 22 mg/kg
Description: Representative images are shown at ×400 magnification. Scale bar: 100 μm. Data represent mean ± SD of three independent experiments
Tumor samples were fixed in 10% formalin, paraffinized, and sectioned into 4-μm sections, which were stained with H&E according to standard methods.
Tumor samples were fixed in 10% formalin, paraffinized, and sectioned into 4-μm sections, which were stained with FITC-POD according to standard methods.

MCF-7 = experiment: CCK-8 cell proliferation assay, MCF-7; assay type: cell-based; settings: Homo sapiens, MCF7, 48 h
Experimental: (§1) Fig. 2 NBT and BT induced cell death in HeLa, A549, and MCF-7 cell lines. a Effects of BT on the proliferation of MCF-7, HeLa, and A549 cells. Cells (5 × 10^3) were seeded in a 96-well plate for 24 h and then treated with increased concentrations of BT for 48 h. The cell viability was evaluated by using CCK-8 assay. b MCF-7, HeLa, and A549 cells (5 × 10^3) were seeded in a 96-well plate for 24 h and were treated with known concentrations of NBT for 48 h. c MCF-7 cells (5 × 10^3) were seeded in a 96-well plate for 24 h and then were treated with known concentrations of NBT for 24 or 48 h. The cell viability was evaluated by using CCK-8 assay. d MCF10A, BEAS-2B, and L-02 cells (5 × 10^3) were seeded in a 96-well plate for 24 h and were treated with 6, 12, and 24 μM concentrations of NBT for 24 or 48 h. The cell viability was evaluated by using CCK-8 assay.
(§2) MCF-7, HeLa, A549, BEAS-2B, MCF10A, and L-02 cell lines were purchased from the American Type Culture Collection (ATCC) (Rockville, Maryland, USA). […]
(§3) Cells were grown in 96-well plates at a density of 5 × 10^3 cells/100 μL for 24 h, and then various concentrations of BT or NBT were added for 24 or 48 h. […] Optical density was measured at 450 nm by using a multimode plate reader (PerkinElmer EnSpire, USA).

A549 = experiment: CCK-8 cell proliferation assay, A549; assay type: cell-based; settings: Homo sapiens, 48 h
Experimental: as §1, §2, §3

HeLa = experiment: CCK-8 cell proliferation assay, HeLa; assay type: cell-based; settings: Homo sapiens, 48 h
Experimental: as §1, §2, §3

[1] = for coefficient of the heart, liver, spleen, and kidney to the body weight: after 11 days of exposure; for body weight changes: during 11 days of exposure; for ALT/GPT / AST/GOT / BUN / CRE / UA: serum, after 11 days i.p., N = 8, mean ± S
[2] = MCF-7, 24 h, NBT 6-24 μM, Rapa 0.25 μM, NBT 12 μM + CQ 40 μM

Row | SMILES | tumor growth compared with the control (MCF-7 xenograft) | coefficient of the heart, liver, spleen, and kidney to the body weight [1] | body weight changes [1] | ALT/GPT [1] [IU/L] | AST/GOT [1] [IU/L] | BUN [1] [mmol/L] | CRE [1] [µmol/L] | UA [1] [µmol/L] | also measured
1 | Cn1cnc(N)c2ncnc1-2 [3-MA, 3-methyladenine, reference compound] |  |  |  |  |  |  |  |  | effect on NBT-induced caspase-9 and PARP activation (MCF-7 cells; MCF-7, 3-MA 5 mM with NBT 12 μM, 24 h): inhibit
2 | C=C(C)[C@@H]1CC[C@]2(CO)CC[C@]3(C)[C@H](CC[C@@H]4[C@@]5(C)CC[C@H](O)C(C)(C)[C@@H]5CC[C@]43C)[C@@H]12 [BT, Betulin] | minimal reduction in tumor growth | no significant differences | no significant differences | 106.33 ± 24.27 | 183.42 ± 39.98 | 10.13 ± 3.04 | 45.10 ± 6.43 | 130.18 ± 25.22 | HE staining of tumors (MCF-7 xenograft; 100 mg/kg i.p., 11 days): fibrosis, necrosis, and inflammatory cell infiltration; inhibition at 500 µM (MCF-7): ≤ 40%; inhibition at 500 µM (A549): ≤ 40%; IC50 (HeLa): 288 ± 12.3 µM; safety after 11 days of administration ([1]; 100 mg/kg i.p., nude mice): safe
3 | CCN(CC)CCCC(C)Nc1ccnc2cc(Cl)ccc12 (stereo not drawn) [CQ, Chloroquine, reference compound] |  |  |  |  |  |  |  |  | p62 level increased by (MCF-7 cells; MCF-7, 40 μM, 24 h): 75%
4 | O=c1[nH]cc(F)c(=O)[nH]1 [5-FU, 5-fluorouracil] | significant reduction in tumor growth | no significant differences | no significant differences | 95.48 ± 12.86 | 245.71 ± 47.15 | 9.26 ± 2.23 | 32.95 ± 6.29 | 84.52 ± 6.63 | 
5 | CO[C@H]1C[C@@H]2CC[C@@H](C)[C@@](O)(O2)C(=O)C(=O)N2CCCC[C@H]2C(=O)O[C@H]([C@H](C)C[C@@H]2CC[C@@H](O)[C@H](OC)C2)CC(=O)[C@H](C)/C=C(\C)[C@@H](O)[C@@H](OC)C(=O)[C@H](C)C[C@H](C)/C=C/C=C/C=C/1C [Rapa, Rapamycin, reference compound] |  |  |  |  |  |  |  |  | p62 level reduced by (MCF-7 cells; MCF-7, 0.25 μM alone, 24 h): 60%; Atg5 level (MCF-7 cells; [2]): increased; p62 level (MCF-7 cells; [2]): decreased; LC3B-II level (MCF-7 cells; MCF-7, 24 h, Rapa 0.25 μM, NBT 12 μM + CQ 40 μM): increased
